# According to ChEMBL document CHEMBL4425119, “Design and Development of a Series of Potent and Selective Type II Inhibitors of CDK8” (ACS Med Chem Lett, 2016):
# Assays:
# [1] = Permeability across basolateral to apical side of MDCK cells; type: ADME, cell-based, Canis lupus familiaris; conditions: dog
# [2] = Permeability across apical to basolateral side of MDCK cells; type: ADME, cell-based, Canis lupus familiaris; conditions: dog, read-out: permeability
Compound,Papp B→A [1],Papp A→B [2]
CNc1nccc(N2CC[C@H](NC(=O)Nc3ccc(C)c(Cl)c3)C2)n1,7 ×10⁻⁶ cm/s,3.9 ×10⁻⁶ cm/s
CNc1nccc(N2CC[C@H](NC(=O)Nc3ccc(CN4CCOCC4)c(C(F)(F)F)c3)C2)n1,12.2 ×10⁻⁶ cm/s,12.4 ×10⁻⁶ cm/s
CNc1nccc(N2CC[C@H](NC(=O)Nc3ccc(Cl)c(C(F)(F)F)c3)C2)n1,4 ×10⁻⁶ cm/s,3.9 ×10⁻⁶ cm/s

# Other lines, results leading:
Papp B→A [1],Papp A→B [2],Compound
4.5 ×10⁻⁶ cm/s,4.1 ×10⁻⁶ cm/s,CNc1nccc(N2CC[C@H](NC(=O)Nc3ccc(CN4CCN(C)CC4)c(C(F)(F)F)c3)C2)n1
4.2 ×10⁻⁶ cm/s,0.3 ×10⁻⁶ cm/s,CCN1CCN(Cc2ccc(NC(=O)N[C@H]3CCN(c4ccnc(NC)n4)C3)cc2C(F)(F)F)CC1
